Results: patent US7858745B2, “Use of specifically engineered enzymes to enhance the efficacy of prodrugs” (The Board of Trustees of the University of Illinois, priority 2003, dated 2010)

Legend:
HL60 cell line = assay: Annexin V and propidium iodide (PI) staining of apoptotic cells, HL60; format: cell-based; conditions: after 96 hours; AraC at 1 μM
Description: (§1) The HuM195 antibody will only bind and internalize to cells expressing CD33. Thus, the HL60 cell line (derived from AML cells) and the NB4 cell line, which are CD33 positive, were used to test the activity of the HuM195-dCK system in live cells. The cells were treated with AraC, the HuM195-dCK conjugate, or the combination of HuM195-dCK and the AraC. Annexin V and propidium iodide (PI) staining was used to identify apoptotic cells.

NB4 cells = assay: Apoptosis assay, NB4; format: cell-based; conditions: after 96 hours; AraC 250 nM
Description: as §1
The NB4 cells were also treated with AraC, the HuM195-dCK conjugate, or the combination of HuM195-dCK and the AraC, and an apoptosis assay was performed as above. The AraC dose used, however, was decreased from 1000 nM to 250 nM. The results were similar to those observed in the HL60 cells (FIG. 8). The conjugate with AraC (right bars) achieve ˜65% cell killing after 96 hours, whereas AraC alone was below 40%.

dCK = dCK (Homo sapiens, UniProt P27707); conditions: versus cladribine; cited from earlier work
Chain of dCK (P27707 whole entry): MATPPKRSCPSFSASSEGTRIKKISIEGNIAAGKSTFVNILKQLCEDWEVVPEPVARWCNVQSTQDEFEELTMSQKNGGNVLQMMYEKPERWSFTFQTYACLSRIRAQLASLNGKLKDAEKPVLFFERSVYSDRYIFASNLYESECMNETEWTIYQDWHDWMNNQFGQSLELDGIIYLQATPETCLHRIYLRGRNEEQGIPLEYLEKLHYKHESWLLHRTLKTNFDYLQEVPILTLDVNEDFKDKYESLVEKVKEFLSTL

dNK = target: T1, dNK (Drosophila melanogaster, UniProt Q9XZT6); conditions: dC phosphorylation; cited from earlier work
T1 sequence (Q9XZT6 1-250): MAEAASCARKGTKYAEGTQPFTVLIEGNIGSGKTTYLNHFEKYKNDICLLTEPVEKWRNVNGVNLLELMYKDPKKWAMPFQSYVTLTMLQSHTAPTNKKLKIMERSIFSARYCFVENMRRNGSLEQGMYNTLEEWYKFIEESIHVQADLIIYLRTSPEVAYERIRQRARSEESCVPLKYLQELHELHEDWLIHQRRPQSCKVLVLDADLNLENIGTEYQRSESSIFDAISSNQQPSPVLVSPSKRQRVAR

A100V/R104M/D133A-dCK = A100V/R104M/D133A-dCK (Homo sapiens, UniProt P27707, A100V/D133A/R104M); assay: Steady-state kinetic assay of deoxycytidine kinase activity, triple mutant enzyme
Chain of A100V/R104M/D133A-dCK (P27707 whole entry A100V/R104M/D133A): as the sequence (P27707 whole entry) above, with A100V, R104M, D133A counted along it
Description: Since Arg104 plays a role in the already mentioned active site hydrogen-bonding network, its mutation to the uncharged methionine was combined with the compensatory change of Asp133 to an alanine. […] In addition, Ala100 was changed to a valine as is found in dNK.
All experiments were performed in duplicates.

Wild Type dCK = Wild Type dCK (Homo sapiens, UniProt P27707); assay: Steady-state kinetic assay of deoxycytidine kinase activity, wild type enzyme; conditions: prodrug versus dC
Chain of Wild Type dCK (P27707 whole entry): as the sequence (P27707 whole entry) above

Nc1ccn([C@@H]2O[C@H](CO)[C@@H](O)[C@@H]2O)c(=O)n1 [ara-C, 1-β-D-arabinofuranosylcytosine]
cell death (HL60 cell line): 50%
cell killing (NB4 cells): below 40%

Nc1nc(Cl)nc2c1ncn2[C@@H]1O[C@H](CO)[C@@H](O)[C@@H]1F [clofarabine, 2-chloro-2′-arabino-fluoro-2′-deoxyadenosine]
more efficient substrate for dCK than cladribine (dCK): ~3 fold

Nc1ccn([C@H]2C[C@H](O)[C@@H](CO)O2)c(=O)n1 [dC, deoxycytidine]
kcat (dNK): 16.5 s⁻¹

Nc1ccn([C@@H]2O[C@H](CO)[C@@H](O)C2(F)F)c(=O)n1 [gemcitabine, 2′,2′-difurodeoxycytidine]
increase of efficiency of the triple mutant over wild type (A100V/R104M/D133A-dCK; triple mutant versus wild type dCK): ~4 fold
change in KM compared to dC (Wild Type dCK): slight increase
higher enzymatic efficiency for dCK compared to dC (Wild Type dCK): ~4 fold
increase in the kcat compared to dC (Wild Type dCK): 10 fold

Cc1cn([C@H]2C[C@H](O)[C@@H](CO)O2)c(=O)[nH]c1=O [thymidine]
phosphorylation of thymidine by the dCK mutant (A100V/R104M/D133A-dCK; Arg104 to methionine, Asp133 to alanine): gained the ability to phosphorylate thymidine
